Tests used:
E18 cortical neurons [1] = experiment: Aβ-induced neurite degeneration of cortical neurons; assay type: cell-based, rat; conditions: DIV7 E18 cortical neurons, 1 μM Aβ oligomer 16-18 hours, with 10 μM peptide
Experimental: To test whether the triggering disassembly of stress granules would be protective in Parkinson's and Alzheimer's disease, the inventors employed 1-methyl-4-phenylpyridinium (MPP+)-induced and amyloid β (Aβ)-mediated neurotoxicity models. Rat embryonic day 18 (E18) midbrain neurons cultured for 7 days were treated for 16-18 hours with 100 μM MPP+, see FIGS. 1A and B, while E18 cortical neurons were treated with 1 μM Aβ oligomer, see FIGS. 2A-2B, with or without 10 μM G3BP1 190-208 or 168-189 peptide. As a control, the inventors used non-treated neurons.
FIG. 2: Cell permeable G3BP1 190-208 peptide blocks pathological degeneration beta-amyloid-induced neurotoxicity in cortical neurons. (A) Representative images of NF-labeled (white) E18 cortical neurons. DIV7 cortical neurons were treated with […] (ii) or control (i) and 10 μM 190-208 G3BP1 peptide (iv) or 10 μM 168-189 control peptide (iii) [scale bar=100 μm]. (B) Quantitation of degeneration in cortical neurons treated with 1 μM Aβpeptide-treated neurons after addition of 190-208 G3BP1 or 168-189 control peptide. Solvent treated cells were used as control. […] (N≥95 over 3 cultures; by one-way ANOVA with Tukey HSD post-hoc).

E18 cortical neurons [2] = experiment: Axon growth of cortical neurons in microfluidic devices; assay type: cell-based, rat; conditions: 10 μM peptide applied to axonal compartment at 3 DIV, assessed at 6 DIV
Experimental: For cortical neuron cultures, E18 cortices were dissected in Hibernate E (BrainBits) and dissociated using the Neural Tissue Dissociation kit (Miltenyi Biotec). For this, minced cortices were incubated in a pre-warmed enzyme mix at 37° C. for 15 min; tissues were then triturated and applied to a 40 μm cell strainer.
After washing and centrifugation, neurons were seeded at a density of 1×10^5 cells per poly-D-lysine-coated microfluidic device (Xona Microfluidics). NbActive-1 medium (BrainBits) supplemented with 100 U/ml of Penicillin-Streptomycin (Life Technologies), 2 mM L-glutamine (Life Technologies), and 1×N21 supplement (R&D Systems) was used as culture medium.
For peptide treatments, 10 μM Tat-fused peptides were added to dissociated DRG cultures at 2 or 12 h after plating. Neurite outgrowth was assessed 24 h after addition of peptides. For the cortical cultures, 10 μM peptide was applied to the axonal compartment at 3 d in vitro (DIV) and axonal growth was assessed at 6 DIV. For iMotor neurons, 20 μM peptides were immediately added and neurite growth was assessed 24 h later.

[3] = system: NMJs of TDPΔNLS MN-muscle co-cultures; experiment: TMRE mitochondrial activity in in vitro NMJs; assay type: cell-based, mouse; conditions: 20 μM peptide in NMJ compartment
Experimental: Muscles in co-culture were kept in BA medium for 7 days. To aid NMJ formation, media in all compartments was then replaced to poor neurobasal (PNB) medium, which contained only 1% P/S and 1% Glutamax. Doxycycline was applied to TDP-43ΔNLS cultures only at the proximal MN compartment, in a concentration of 0.1 μg/mL, immediately after plating and throughout the entire experimental timeline. For TDPΔNLS recovery experiments (FIGS. 7-8), Doxycline was […] at the proximal MN compartment after 5 DIV, and the cultures were grown until 11 DIV. For G3BP1 peptide treatment (FIG. 21 at i-j, FIG. 24 at f), 20 μM G3BP1 peptides were added exclusively to the distal compartment, starting after 7 DIV.
Mitochondrial membrane potential was assessed with Tetramethylrhodamine Ethyl, Ester (TMRE; Thermo Fisher) dye. Cultures were incubated with 20 nM TMRE for 30 min in CO2 incubator, then washed 3 times with culture medium. Images of TMRE labeled axons in the distal compartment of MFCs were acquired before and after cultures were treated with Anisomycin (40 μM) or NaAsO2 (250 μM), Cycloheximide (150 μM) in ×60 magnification. […] The intensity of TMRE fluorescence in axonal mitochondria was measured using FIJI, and the fraction of change post/pretreatment was calculated for each image field.

[4] = system: wild-type or ALS/FTD-associated mutant (P362L, A381T, E384K) TIA1-GFP in HEK cells; experiment: TIA1-GFP aggregates in arsenite-treated HEK cells; assay type: cell-based; conditions: sodium arsenite 0.5 mM 30 minutes, then 10 μM peptide
Source text: The inventors tested whether the G3BP1 190-208 peptide would prevent the aggregation of granules formed by TIA1 and TDP43 mutant proteins associated with ALS and FTD. […] Next, we treated HEK cells expressing wild-type and or ALS/FTD-associated mutants (P362L, A381T, or E384K)TIA1, with arsenite a potent inducer of SG aggregation, in addition to either G3BP1 190-208 peptide or control G3BP1 168-189 peptide.
FIG. 5: Cell permeable G3BP1 190-208 peptide decreases TIA1-GFP puncta formed due to expression of disease causing TIA1 mutants. (A) Representative images of HEK cells transfected with GFP-tagged wild-type or ALS/FTD-associated mutants (P362L, A381T, or E384K) TIA1. Arrows show TIA1-GFP puncta. (B) Quantification of the percentage of cells with TIA1-GFP puncta greater than 2 μm^2 area in transfected cells relative TIA1-WT-GFP expressing cells. Consistent with previous studies, ALS/FTD- associated TIA1 mutants show increased number of TIA1-GFP puncta as compared to WT-TIA1. (C) HEK cells expressing TIA1-GFP or ALS/FTD-associated mutants TIA1-P362L, TIA1-A381T, TIA1-E384K were treated with sodium arsenite (0.5 mM) for 30 minutes followed by treatment with either 10 μM 190-208 G3BP1 or 168-189 control peptide. The number of cells containing TIA1-GFP puncta were measured and results are reported relative to non-treated controls. Number of HEK cells with TIA1-GFP granules both for WT and ALS/FTD mutants decreased after treatment with 10 μM 190-208 G3BP1 as compared to the 168-189 control peptide treated cells. (N≥90 over 3 cultures; by two-way ANOVA with Tukey HSD post-hoc). Scale bar: 20 μm.

YGNKKNNNQNNN-VVEPEPEPEPEPEPEPVSE [G3BP1 190-208 peptide]
neurite degeneration (E18 cortical neurons [1]; listed as 190-208 peptide): significant rescue from Aβ-induced neurite degeneration
neurite degeneration (E18 cortical neurons [1]; listed as G3BP1 190-208): prevented neurite degeneration
axon growth (E18 cortical neurons [2]): significant increase in axon growth
pre-synaptic TMRE signal (mitochondria activity) in NMJs [3]: recovered
number of HEK cells with TIA1-GFP granules ([4]; WT and ALS/FTD mutants, relative to non-treated controls): decreased
size of TIA1 aggregates ([4]; WT and mutant TIA1): decrease the size of the TIA1 aggregates

From patent US20230190887A1, “TARGETING G3BP AGGREGATION TO PREVENT NEURODEGENERATION” (priority 2019, published 2023)
